Results: the NIST ThermoML archive (doi:10.1021/je900550v)

Details: 101.33 kPa, Liquid; for speed of sound: Pulse-echo method; for mass density: Vibrating tube method

CC(C)C(=O)[O-].C[NH2+]CCO [2-hydroxy-N-methylethanaminium isobutyrate]
Details	mass density [kg/m3]	speed of sound [m/s]	viscosity [mPa·s]
278.15 K	1056.12	1670.2	–
278.4 K	1055.96	1669.4	–
278.65 K	1055.8	1668.6	–
278.9 K	1055.64	1667.8	–
279.15 K	1055.48	1667	–
279.4 K	1055.32	1666.2	–
279.65 K	1055.16	1665.4	–
279.9 K	1055	1664.7	–
280.15 K	1054.85	1663.9	–
280.4 K	1054.68	1663.1	–
280.65 K	1054.52	1662.3	–
280.9 K	1054.36	1661.5	–
281.15 K	1054.2	1660.8	–
281.4 K	1054.04	1660	–
281.65 K	1053.88	1659.2	–
281.9 K	1053.72	1658.5	–
282.15 K	1053.56	1657.7	–
282.4 K	1053.4	1657	–
282.65 K	1053.24	1656.2	–
282.9 K	1053.08	1655.4	–
283.15 K	1052.92	1654.7	–
283.4 K	1052.76	1653.9	–
283.65 K	1052.6	1653.2	–
283.9 K	1052.43	1652.4	–
284.15 K	1052.27	1651.7	–
284.4 K	1052.11	1650.9	–
284.65 K	1051.95	1650.2	–
284.9 K	1051.79	1649.4	–
285.15 K	1051.63	1648.7	–
285.4 K	1051.47	1647.9	–
285.65 K	1051.31	1647.2	–
285.9 K	1051.14	1646.4	–
286.15 K	1050.98	1645.9	–
286.4 K	1050.82	1645.2	–
286.65 K	1050.66	1644.4	–
286.9 K	1050.49	1643.7	–
287.15 K	1050.33	1642.9	–
287.4 K	1050.17	1642.2	–
287.65 K	1050.01	1641.5	–
287.9 K	1049.85	1640.7	–
288.15 K	1049.68	1640	301.35
288.4 K	1049.52	1639.3	–
288.65 K	1049.36	1638.5	–
288.9 K	1049.19	1637.8	–
289.15 K	1049.03	1637.1	–
289.4 K	1048.87	1636.3	–
289.65 K	1048.72	1635.6	–
289.9 K	1048.56	1634.9	–
290.15 K	1048.41	1634.2	–
290.4 K	1048.25	1633.4	–
290.65 K	1048.09	1632.7	–
290.9 K	1047.94	1632	–
291.15 K	1047.79	1631.2	–
291.4 K	1047.63	1630.5	–
291.65 K	1047.47	1629.8	–
291.9 K	1047.31	1629.1	–
292.15 K	1047.16	1628.4	–
292.4 K	1047	1627.7	–
292.65 K	1046.84	1626.9	–
292.9 K	1046.68	1626.2	–
293.15 K	–	–	220.69
